Experimental data as given in patent US5801144A, “Use of a compound for the manufacture of a medicament for the treatment of HIV infection” (priority 1992, dated 1998).
Entries after “also recorded” stand apart in the source; their conditions may differ. Like-named read-outs stand apart in the source and are kept apart here.

How the values were obtained:
[1] = tested on: HIV-2; assay: Giant cell / cytopathic effect on co-cultivation of HIV-2 chronically infected cells with uninfected cells; format: cell-based; details: co-cultivation in the presence of the drugs, within 24 hours
[2] = tested on: NDK strain of HIV-1; assay: Giant cell assay: co-cultivation of HIV-1 chronically infected Molt 4 cells with non-infected Molt 4 cells; format: cell-based
Method: Method: A clone of the leukaemia T-cell line Molt 4, which expresses a very high level of CD4, was selected. This was infected with the highly cytopathic NDK strain of HIV-1^6 and a clone which is chronically infected with the virus but which readily replicates was selected. When these HIV-infected cells w ere co-cultivated with non-infected Molt 4 cells at a ratio of 100 non-infected:1 infected cell, very large giant cells were formed within 24 hours.
(§1) The effects of serum from healthy HIV-1 infected individuals and AIDS patients on giant cell formation was also examined. In addition the level of cytotoxicity and anti-HIV-1 activity of these substances was tested in an anti-HIV assay system which has been previously described^7. This enabled us to establish the anti-viral activity and cytotoxicity in parallel and to compare it to the effects of AZT on virus inhibition and cell division.

[3] = tested on: Molt 4 cells chronically infected with HIV-1; assay: Growth-rate of chronically infected T-cells; format: cell-based
Method: (§2) Method: Molt 4 cells and the clone of the same cells, chronically infected with HIV-1, were seeded separately at an approximate concentration of 5×10^4 cells/ml. Five separate cultures of each of the two cell populations were seeded. […] At 24 hour intervals samples were taken for cell counting. Feeding with or without the corresponding chemical was done after the fourth day. AZT was also used in parallel.

[4] = tested on: non-infected Molt 4 cells; assay: Growth-rate of non-infected T-cells; format: cell-based
Method: as §2

[5] = tested on: CD4; assay: CD4 expression on HIV-1 chronically infected cells (flow cytometry); format: cell-based; details: 1 and 4 μg/ml, 3 days
Method: (§3) Each cell preparation was kept separately at a concentration of 1 and 4 μg/ml of each drug for 3 days. Infected and uninfected cells were suspended at a concentration of 10^6 /ml in phosphate buffered saline (PBS) containing 0.1% sodium azide. Triplicate aliquots of 100 μl were incubated separately with 20 μl Leu-3a (FITC) (Ortho (Becton Dickinson UK Ltd) or with 10 μl OKT4a (FITC) Diagnostic Systems). After 20 min at 22° C. the cells were washed twice with PBS and resuspended in 0.51% paraformaldehyde/PBS (Sigma). The preparations were fixed overnight at 4° C. and subsequently analysed by flow cytometry (FACScan, Becton Dickinson UK Ltd). The median channel fluorescence was recorded for each sample.

[6] = tested on: CD4; assay: CD4 expression on non-infected cells (flow cytometry); format: cell-based; details: 1 and 4 μg/ml, 3 days
Method: as §3

[7] = tested on: HIV-1; details: drug-containing medium replaced with growth medium alone, one week
Method: Method: Culture fluid was collected from:
1. chronically infected cells grown in growth medium;
3. chronically infected cells grown in 10 μg/ml of FK506 and for 1 week after removal of compound;
Each culture was titrated at serial ten-fold dilutions. Each dilution was used to infect Molt 4 cells in duplicate. The end point was recorded after 10 days.

[8] = tested on: HIV-1; assay: Anti-HIV assay system (HIV-1 replication, cytotoxicity in parallel); format: cell-based
Method: as §1

## C=CC[C@@H]1/C=C(\C)C[C@H](C)C[C@H](OC)[C@H]2O[C@@](O)(C(=O)C(=O)N3CCCC[C@H]3C(=O)O[C@H](/C(C)=C/[C@@H]3CC[C@@H](O)[C@H](OC)C3)[C@H](C)[C@@H](O)CC1=O)[C@H](C)C[C@@H]2OC [FK506, 16-Allyl-1, 14-dihydroxy-12-[2-(4-hydroxy-3-methoxycyclohexyl)-1-methylvinyl]-23,25-dimethoxy-13,19,21,27-tetramethyl-11,28-dioxa-4-azatricyclo-[22,3,1,0^4,9]octacos-18-ene-2,3,10,16-tetrone]
[1]
  delay of cytopathic effect / giant cell formation (anti-HIV-2 activity): delay of the cytopathic effect; also recorded: delay in the formation of giant cells
[2]; HIV-1, co-cultivation in the presence of the drugs, within 24 hours
  delay of cytopathic effect / giant cell formation (anti-HIV-1 activity): delay of the cytopathic effect; also recorded: delay in the formation of giant cells
[2]; chronically infected cells cultured one week with drug, washed, co-cultivated without drug
  giant cell formation after drug pre-treatment of infected cells: a few small giant cells could be seen during the first 24 hours
[2]; chronically infected cells grown with drug for five days and then washed
  onset of cytopathic effects, in particular giant cell formation: inhibition of and a delay in the onset of cytopathic effects
[2]; co-cultured in the presence of 10 μg/ml, examined after 24 hours
  giant cell formation: only a few small giant cells
[3]
  effect on growth / replication of HIV-1 chronically infected cells: inhibited the replication; also recorded: inhibit the growth of the chronically infected cells
[3]; 4 μg/ml
  cell division of chronically infected cells at 4 μg/ml: significant reduction in cell division
[3]; 10 μg/ml, after a week in culture
  number of chronically infected cells at 10 μg/ml: only a marginal increase in the number of cells
[3]; listed as FK
  effect on growth / replication of HIV-1 chronically infected cells: significantly inhibited the replication
[4]
  cell division of uninfected cells at 4 μg/ml: did not appear to slow cell division
  growth of uninfected cells, first five days: did not affect the growth of uninfected cells
  number of uninfected cells after day five at 10 μg/ml: only a marginal increase in the number of cells
[5]
  CD4 expression on chronically HIV-1 infected Molt 4 cells: does not seem to be affected
[6]
  CD4 expression on uninfected Molt 4 cells: expressed a high level of CD4
[7]
  production of infectious HIV-1 after drug removal: increase in the production of infectious HIV-1 to the levels which preceded the drug treatment
[8]; at 1 μg
  HIV-1 replication at 1 μg: only a partial decrease
[8]; non-toxic concentrations
  antiviral activity at non-toxic concentrations: marginal antiviral activity
[8]; various concentrations, FIG. 1
  inhibition of HIV-1 replication (comparison with AZT): far lower than that of AZT
